Earlier results on one compound are cited in patent US11154542B2, “Nail lacquer composition containing ciclopirox” (GENUONE SCIENCES INC., priority 2015, dated 2021).

This data set relates to fungus. The following applies: laboratory researches.

In the case of `CCC(C)(C)c1ccc(CC(C)CN2C[C@@H](C)O[C@@H](C)C2)cc1` (some centres unmarked) [amorolfine, Amorolfine], the antifungal activity entry is “low antifungal activity” and the “formation of spores that resist antifungal agents” value was “effective in reducing the formation of spores”.
